From patent US6797711B2, “Benzofuran derivatives and pharmaceutical compositions containing the same” (Pola Chemical Industries, Inc., priority 2000, dated 2004)

Structure (SMILES)	melting point [°C]
O=C(/C=C/c1ccccc1)N1CCN(CC(O)c2cc3ccccc3o2)CC1 (centres unmarked) [Compound 1, 1-(2-(benzofuran-2-yl)-2-hydroxy)ethyl-4-cinnamoylpiperazine]	126.5 to 128
O=C(CC(c1ccccc1)c1ccccc1)N1CCN(Cc2cc3ccccc3o2)CC1 [Compound 6, 1-(benzofuran-2-yl)methyl-4-(3,3-diphenylpropionyl)piperazine]	120.5 to 122
O=C(CC(c1ccccc1)c1ccccc1)N1CCN(CCc2cc3ccccc3o2)CC1 [Compound 7, 1-(2-(benzofuran-2-yl)ethyl)-4-(3,3-diphenylpropionyl)piperazine]	123.3 to 124.1

Now from value to compound:

melting point [°C]	Structure (SMILES)
125.5 to 127.5	O=C(CC(c1ccccc1)c1ccccc1)N1CCN(CC(O)c2cc3ccccc3o2)CC1 (centres unmarked) [Compound 3, 1-(2-(benzofuran-2-yl)-2-hydroxy)ethyl-4-(3,3-diphenylpropionyl)piperazine]
130.5 to 132	O=C(CC(c1ccccc1)c1ccccc1)N1CCN(C(=O)c2cc3ccccc3o2)CC1 [Compound 4, 1-(benzofuran-2-yl)carbonyl-4-(3,3-diphenylpropionyl)piperazine]
